In data set [1] the test system is human ovarian cancer cell line A2780. The data set is described as follows: Growth inhibition assay (CellTiter 96 Non-Rad Cell Proliferation Assay). It is filed as cell-based. The note with it: for IC50 / Emax: Homo sapiens. As for the experimental part:
To illustrate the general activity of the compounds inhibiting growth of human […] ovarian cancer cells, selected compounds were synthesized and evaluated. The compounds were dissolved in DMSO at a concentration of 0.01 M. The human ovarian cancer cell line A2780 was plated in 96-well tissue culture dishes at a concentration of 3000 cells per well in RPMI medium supplemented with 10% fetal bovine serum and a mixture of antibiotics and antimycotics. The next day, the cultures were treated in triplicate with compound concentrations ranging from 2 μM to 8 μM increments. For compound 12, additional experiments were performed with concentrations of 10 μM and a series of two-fold dilutions to 156 nM. Control cultures were treated with DMSO solvent only. After 72 h of incubation, the […] 96® Non-Rad Cell Proliferation Assay (Promega) was used to quantify the remaining metabolically living cells. After subtracting blank values, the optical density (OD) readouts of the assay for the treated cultures were normalized with the average OD of the control cultures. For each compound, the experiment was repeated at least once, resulting in a minimum of 6 dose-response curves. For SHetA2, 24 response curves were available for statistical fitting parameters. A custom program was written in GNU Octave, a free software compatible with Matlab, to fit the dose-response curves with a four-parameter sigmoid function, extracting the IC50 and efficacy (the maximal % growth inhibition) parameters.
To illustrate the useful biological activity of these chroman-substituted and tetrahydroquinoline-substituted heteroarotinoids, the compounds were screened against human […] ovarian cancer cells.

[2] abbreviates: A2780, 72 h, Table 2, tetrahydroquinoline-containing members.
[3] abbreviates: A2780, 72 h, Table 2, maximal % growth inhibition, A2780, 72 h, read-out: Efficacy.
[4] abbreviates: A2780, 72 h, Table 1, chroman-containing series.
Where [5] appears, read: A2780, 72 h, Table 1, maximal % growth inhibition, A2780, 72 h, read-out: Efficacy.
[6] abbreviates: A2780, Table 3, 14 series (thiochroman), A2780.
Setting [7] is: A2780, Table 3, 14 series, A2780, read-out: % Efficacy.

Like-named read-outs stand apart in the source and are kept apart here.

On to `CN1c2ccc(NC(=O)Nc3ccc(OC(F)(F)F)cc3)cc2C(C)(C)C(O)C1(C)C` (centres unmarked) [Compound 13e, 1-(3-Hydroxy-1,2,2,4,4-pentamethyl-1,2,3,4-tetrahydroquinolin-6-yl)-3-(4-(trifluoromethoxy)phenyl)urea], for which the melting point lay within 188 to 189 °C. Besides, inhibition in data set [1] (setting [2]) was half-maximal at 7.8 µM (IC50). In addition, in data set [1] (setting [3]), the Emax came to 23.6%.
Regarding `CC1(C)CC(C)(C)c2cc(NC(=O)Nc3ccc(OC(F)(F)F)cc3)ccc2O1` [Compound 3c, 1-(2,2,4,4-Tetramethylchroman-6-yl)-3-(4-(trifluoromethoxy)phenyl)urea], the melting point was 219 to 221 °C. This compound also showed an IC50 in data set [1] (setting [4]) of 3.6 µM. Moreover, the Emax in data set [1] (setting [5]) worked out at 88.4%. For the same compound, in data set [1] (comparison in words, A2780), the “efficacy compared with SHetA2” value is on record as “exceeded the efficacy of SHetA2”.
The compound `CC1(C)CCOc2ccc(NC(=O)Nc3ccc(OC(F)(F)F)cc3)cc21` [Compound 5c, 1-(4,4-Dimethylchroman-6-yl)-3-(4-(trifluoromethoxy)phenyl)urea] came in with a melting point of 230 to 231 °C. The compound further registered an IC50 in data set [1] (setting [4]) of 3.5 µM. For the same compound, the Emax in data set [1] (setting [5]) stood at 36%.
Consider `CCC1(CC)CC(C)(C)Oc2ccc(NC(=O)Nc3ccc(C(F)(F)F)cc3)cc21` [Compound 7d, 1-(4,4-Diethyl-2,2-dimethylchroman-6-yl)-3-(4-(trifluoromethyl)phenyl)urea], for which the melting point was in the range of 225 to 226 °C. Further, in data set [1] (setting [4]), the IC50 is 2.43 µM. Moreover, in data set [1] (setting [5]), the Emax was 93.3%. Also, the “efficacy compared with SHetA2” value in data set [1] (comparison in words, A2780) was “exceeded the efficacy of SHetA2”. In addition, in data set [1] (comparison in words, A2780, 'exceeded' = lower IC50 in Table 1), the “IC50 compared with SHetA2” value is on record as “exceeded”.
`CN1c2ccc(NC(=O)Nc3ccc([N+](=O)[O-])cc3)cc2C(C)(C)C(=O)C1(C)C` [Compound 11a, 1-(4-Nitrophenyl)-3-(1,2,2,4,4-pentamethyl-3-oxo-1,2,3,4-tetrahydroquinolin-6-yl)urea] came in with a melting point of 200 to 201 °C. In addition, 3.8 µM corresponded to half-maximal inhibition in data set [1] (setting [2]) (IC50). Besides, the Emax in data set [1] (setting [3]) worked out at 94.8%.
Take `CC1(C)CCOc2ccc(NC(=S)Nc3ccc(OC(F)(F)F)cc3)cc21` [Compound 4c, 1-(4,4-Dimethylchroman-6-yl)-3-(4-(trifluoromethoxy)phenyl)thiourea]: the melting point was 153 to 154 °C. Half-maximal inhibition in data set [1] (setting [4]) (IC50) required 4.3 µM. Moreover, the Emax in data set [1] (setting [5]) turned out to be 16%.
The matching figures for `CC1(C)CCOc2ccc(NC(=S)Nc3ccc(C(F)(F)F)cc3)cc21` [Compound 4b, 1-(4,4-Dimethylchroman-6-yl)-3-(4-(trifluoromethyl)phenyl)thiourea]: 147 to 149 °C, 5.5 µM and 28%.
For `CC1(C)CC(C)(C)c2cc(NC(=S)Nc3ccc(C(F)(F)F)cc3)ccc2O1` [Compound 2c, 1-(2,2,4,4-Tetramethylchroman-6-yl)-3-(4-(trifluoromethyl)phenyl)thiourea], in that order: 166 to 168 °C, 4.7 µM and 22%.
The matching figures for `CC1(C)CC(C)(C)c2cc(NC(=O)Nc3ccc(C(F)(F)F)cc3)ccc2O1` [Compound 3a, 1-(2,2,4,4-Tetramethylchroman-6-yl)-3-(4-(trifluoromethyl)phenyl)urea]: 245 to 246 °C, 4.1 µM and 79%.
The compound `CN1c2ccc(NC(=S)Nc3ccc(OC(F)(F)F)cc3)cc2C(C)(C)C(=O)C1(C)C` [Compound 11f, 1-(1,2,2,4,4-Pentamethyl-3-oxo-1,2,3,4-tetrahydroquinolin-6-yl)-3-(4-(trifluoromethoxy)phenyl)thiourea] returned a melting point of 83 to 85 °C. The same compound registered an IC50 in data set [1] (setting [2]) of 5.4 µM. Also, the Emax in data set [1] (setting [3]) was 76%.
Compound `CC1(C)CCNc2ccc(NC(=S)Nc3ccc([N+](=O)[O-])cc3)cc21` [Compound 9b, 1-(4,4-Dimethyl-1,2,3,4-tetrahydroquinolin-6-yl)-3-(4-nitrophenyl)thiourea] had a melting point of 150 to 152 °C. The half-maximal inhibitory concentration (IC50) in data set [1] (setting [2]) is 7.1 µM. Further, in data set [1] (setting [3]), the Emax amounted to 17.8%.
For `CN1c2ccc(NC(=S)Nc3ccc([N+](=O)[O-])cc3)cc2C(C)(C)C(=O)C1(C)C` [Compound 11b, 1-(4-Nitrophenyl)-3-(1,2,2,4,4-pentamethyl-3-oxo-1,2,3,4-tetrahydroquinolin-6-yl)thiourea], the melting point was in the range of 145 to 147 °C. This compound returned a concentration for half-maximal inhibition (IC50) in data set [1] (setting [2]) of 4.4 µM. Moreover, in data set [1] (setting [3]), the Emax worked out at 91.4%.
The matching figures for `CN1c2ccc(NC(=O)Nc3ccc(C(F)(F)F)cc3)cc2C(C)(C)C(=O)C1(C)C` [Compound 11c, 1-(1,2,2,4,4-Pentamethyl-3-oxo-1,2,3,4-tetrahydroquinolin-6-yl)-3-(4-(trifluoromethyl)phenyl)urea]: 198 to 199 °C, 2.58 µM and 90.1%.
For `CN1c2ccc(NC(=S)Nc3ccc(OC(F)(F)F)cc3)cc2C(C)(C)C(O)C1(C)C` (centres unmarked) [Compound 13f, 1-(3-Hydroxy-1,2,2,4,4-pentamethyl-1,2,3,4-tetrahydroquinolin-6-yl)-3-(4-(trifluoromethoxy)phenyl)thiourea], in that order: 97 to 99 °C, 13.1 µM and 15.3%.
On to `CC1(C)CC(C)(C)c2cc(NC(=S)Nc3ccc(S(N)(=O)=O)cc3)ccc2O1` [Compound 2d, 4-(3-(2,2,4,4-Tetramethylchroman-6-yl)thioureido)benzenesulfonamide], for which the melting point lay in the range of 186 to 187 °C.
The compound `CN1c2ccc(NC(=S)Nc3ccc(C(F)(F)F)cc3)cc2C(C)(C)C(O)C1(C)C` (centres unmarked) [Compound 13d, 1-(3-Hydroxy-1,2,2,4,4-pentamethyl-1,2,3,4-tetrahydroquinolin-6-yl)-3-(4-(trifluoromethyl)phenyl)thiourea] had a melting point of 105 to 107 °C. The compound also showed an IC50 in data set [1] (setting [2]) of 7.6 µM. In data set [1] (setting [3]), the Emax is 56.1%.
Compound `CC1(C)CC(C)(C)c2cc(NC(=S)NCc3ccc([N+](=O)[O-])cc3)ccc2S1` [Compound 14m, 1-(4-Nitrobenzyl)-3-(2,2,4,4-tetramethylthiochroman-6-yl)thiourea] yielded an IC50 in data set [1] (setting [6]) of 4.7 ± 0.11 µM. In data set [1] (setting [7]), the Emax was 94.5 ± 0.6%. Besides, in data set [1] (comparison in words, A2780), the “efficacy compared with SHetA2” value was “exceeded that of SHetA2 in efficacy”.
`CC1(C)CCOc2ccc(NC(=O)Nc3ccc([N+](=O)[O-])cc3)cc21` [Compound 5a, 1-(4-Nitrophenyl)-3-(4,4-dimethylchroman-6-yl)urea]: half-maximal inhibition in data set [1] (setting [4]) (IC50) was put at 6.7 µM. For the same compound, in data set [1] (setting [5]), the Emax is 74%.
`CC1(C)CC(C)(C)c2cc(NC(=S)Nc3ccc([N+](=O)[O-])cc3)ccc2O1` [Compound 2a, 1-(4-Nitrophenyl)-3-(2,2,4,4-tetramethylchroman-6-yl)thiourea] had an IC50 in data set [1] (setting [4]) of 6.97 µM. Also, the Emax in data set [1] (setting [5]) was found to be 87%. In addition, the “efficacy compared with SHetA2” value in data set [1] (comparison in words, A2780) is reported as “exceeded the efficacy of SHetA2”.
For `CCC1(CC)CC(C)(C)Oc2ccc(NC(=S)Nc3ccc([N+](=O)[O-])cc3)cc21` [Compound 7a, 1-(4,4-Diethyl-2,2-dimethylchroman-6-yl)-3-(4-nitrophenyl)thiourea], in that order: 3.69 µM, 95.7% and “exceeded the efficacy of SHetA2”.
In data set [1] (setting [6]), `CC1(C)CC(C)(C)c2cc(NC(=S)NCCc3ccccc3)ccc2S1` [Compound 14k, 1-Phenethyl-3-(2,2,4,4-tetramethylthiochroman-6-yl)thiourea] came in with an IC50 of 3.19 ± 0.47 µM. Further, in data set [1] (setting [7]), the Emax was 88.2 ± 0.3%. In data set [1] (comparison in words, A2780), the “efficacy compared with SHetA2” value was “exceeded that of SHetA2 in efficacy”.
In data set [1] (setting [6]), `CC1(C)CC(C)(C)c2cc(NC(=S)NCc3ccc(C(F)(F)F)cc3)ccc2S1` [Compound 14n, 1-(2,2,4,4-Tetramethylthiochroman-6-yl)-3-(4-(trifluoromethyl)benzyl)thiourea] registered an IC50 of 4.82 ± 0.41 µM. In data set [1] (setting [7]), the Emax worked out at 95.3 ± 0.3%. In data set [1] (comparison in words, A2780), the “efficacy compared with SHetA2” value was “exceeded that of SHetA2 in efficacy”.
`CC1(C)CC[N+](C)(C)c2ccc(NC(=O)Nc3ccc([N+](=O)[O-])cc3)cc21` [Compound 10, 1,1,4,4-Tetramethyl-6-(3-(4-nitrophenyl)ureido)-1,2,3,4-tetrahydroquinolin-1-ium Iodide]: in data set [1] (setting [2]), half-maximal inhibition (IC50) required 6.6 µM. Moreover, the Emax in data set [1] (setting [3]) came to 22%.
In data set [1] (setting [6]), `CC1(C)CC(C)(C)c2cc(NC(=S)NCc3ccccc3)ccc2S1` [Compound 14j, 1-Benzyl-3-(2,2,4,4-tetramethylthiochroman-6-yl)thiourea] registered an IC50 of 3.03 ± 0.47 µM. Further, the Emax in data set [1] (setting [7]) came out at 85.6 ± 0.6%. For the same compound, the “efficacy compared with SHetA2” value in data set [1] (comparison in words, A2780) was “exceeded that of SHetA2 in efficacy”.
For `CC1(C)CC(C)(C)c2cc(NC(=O)Nc3ccc(OC(F)(F)F)cc3)ccc2S1` [Compound 14b, 1-(2,2,4,4-Tetramethylthiochroman-6-yl)-3-(4-(trifluoromethoxy)phenyl)urea], in that order: 1.86 ± 0.09 µM, 95.6 ± 0.4% and “exceeded that of SHetA2 in efficacy”.

For the origin of these results see patent US11993573B2, “Chromane-substituted, tetrahydroquinoline-substituted and thiochromane-substituted heteroarotinoids as anti-cancer agents” (THE BOARD OF REGENTS FOR OKLAHOMA STATE UNIVERSITY, priority 2018, dated 2024).
